Patent publication US5055448A, “Linear derivatives of arginine vasopressin antagonists” (Medical College of Ohio, priority 1987, dated 1991)
Numbered stars: 1 amine (or outer) side, 2 acyl side, 3 side chain; on linkers, the order of the positions; unused ones are H or OH. Square brackets hold non-standard residues; d marks the D form. Peptide text beside a SMILES is read from it. * marks the point of attachment. Acetyl(1-adamantyl) = O=C(CC12CC3CC(CC(C3)C1)C2)*; Cyclohexylacetyl(1-SH) = O=C(CC1(S)CCCCC1)*; Ethylenediamine = C(CN[*:2])N[*:1]; Orn = NCCC[C@H](N)C(=O)O; Abu = CC[C@H](N)C(=O)O; X1 = CCC(S)(CC)CC(=O)*; Propionyl = CCC(=O)*

Experiments:
[1] = test system: antidiuretic response to arginine vasopressin; parameters: species or system rats; settings: rat, in vivo
Experimental: Activity as antidiuretic agonists was determined by intravenous injection of the compounds being evaluated in ethanol-anesthesized water-loaded rats in accordance with Sawyer, Endocrinology, vol. 63 (1958) at 694. Antagonism of the antidiuretic response to subsequent injections of arginine vasopressin was tested by the method of Sawyer et al., Science, vol. 212 (1981) at 49. Antagonistic potencies were determined and expressed as "effective doses" and pA2 values. The "effective dose" is defined as the dose (in nanomoles per kilogram) that reduces the response seen from 2x units of agonist injected 20 min after the dose of antagonist to the response with 1x units of agonist. Estimated in vivo "pA2 " values represent the negative logarithms of the effective doses, divided by the estimated volume of distribution (67 ml/kg).

[2] = test system: vasopressor response to arginine vasopressin; settings: in vivo
Experimental: Antagonism to the vasopressor response was estimated in accordance with […] et al., J. Med. Chem., vol. 17 (1974) at 969. The values are expressed as pA2 values, defined as in Schild et al., Br. J. Pharmacol., vol. 2 (1947) at 189. Antagonistic potencies were determined and expressed as "effective doses" and pA2 values. The "effective dose" is defined as the dose (in nanomoles per kilogram) that reduces the response seen from 2x units of agonist injected 20 min after the dose of antagonist to the response with 1x units of agonist. Estimated in vivo "pA2 " values represent the negative logarithms of the effective doses, divided by the estimated volume of distribution (67 ml/kg).

| Structure (SMILES) | Antiantidiuretic pA2 [1] | Antivasopressor pA2 [2] |
| --- | --- | --- |
| CCOc1ccc(C[C@@H](NC(=O)CC23CC4CC(CC(C4)C2)C3)C(=O)N[C@@H](Cc2ccccc2)C(=O)N[C@H](C(=O)N[C@@H](CC(N)=O)C(=O)N[C@@H](CC)C(=O)N2CCC[C@H]2C(=O)N[C@@H](CCCNC(=N)N)C(=O)NCC(N)=O)C(C)C)cc1 [(1-adamantyl)acetyl-D-(O-ethyl)tyrosyl-phenylalanyl-valyl-asparaginyl-(2-amino)butyryl-prolyl-arginyl-glycinamide] ({Acetyl(1-adamantyl)}-[dY](Et)FVN[Abu]PRG-NH2) | 7.50 ± 0.02 | 7.10 ± 0.07 |
| CCOc1ccc(C[C@@H](NC(=O)CC23CC4CC(CC(C4)C2)C3)C(=O)N[C@@H](Cc2ccccc2)C(=O)N[C@H](C(=O)N[C@@H](CC(N)=O)C(=O)N[C@@H](CCCNC(=N)N)C(=O)N2CCC[C@H]2C(=O)N[C@@H](CCCNC(=N)N)C(N)=O)C(C)C)cc1 [(1-adamantyl)acetyl-D-(O-ethyl)tyrosyl-phenylalanyl-valyl-asparaginyl-arginyl-prolyl-argininamide] ({Acetyl(1-adamantyl)}-[dY](Et)FVNRPR-NH2) | 7.73 ± 0.08 | 8.01 ± 0.05 |
| CCOc1ccc(C[C@@H](NC(=O)CC23CC4CC(CC(C4)C2)C3)C(=O)N[C@@H](Cc2ccccc2)C(=O)N[C@H](C(=O)N[C@@H](CC(N)=O)C(=O)N[C@@H](CC)C(=O)N2CCC[C@H]2C(=O)N[C@@H](CCCNC(=N)N)C(=O)N[C@@H](CCCNC(=N)N)C(N)=O)C(C)C)cc1 [(1-adamantyl)acetyl-D-(O-ethyl)tyrosyl-phenylalanyl-valyl-asparaginyl-(2-amino)butyryl-prolyl-arginyl-argininamide] ({Acetyl(1-adamantyl)}-[dY](Et)FVN[Abu]PRR-NH2) | 8.11 ± 0.07 | 7.75 ± 0.07 |
| CCOc1ccc(C[C@@H](NC(=O)CC23CC4CC(CC(C4)C2)C3)C(=O)N[C@@H](Cc2ccccc2)C(=O)N[C@H](C(=O)N[C@@H](CC(N)=O)C(=O)N[C@@H](CC)C(=O)N2CCC[C@H]2C(=O)N[C@H](CCCNC(=N)N)C(=O)N[C@@H](CCCNC(=N)N)C(N)=O)C(C)C)cc1 [(1-adamantyl)acetyl-D-(O-ethyl)tyrosyl-phenylalanyl-valyl-asparaginyl-(2-amino)butyryl-prolyl-D-arginyl-argininamide] ({Acetyl(1-adamantyl)}-[dY](Et)FVN[Abu]P[dR]R-NH2) | 7.85 ± 0.08 | 7.49 ± 0.06 |
| CCOc1ccc(C[C@@H](NC(=O)CC23CC4CC(CC(C4)C2)C3)C(=O)N[C@@H](Cc2ccccc2)C(=O)N[C@H](C(=O)N[C@@H](CC(N)=O)C(=O)N[C@@H](CC)C(=O)N2CCC[C@H]2C(=O)N[C@@H](CCCNC(=N)N)C(N)=O)C(C)C)cc1 [(1-adamantyl)acetyl-D-(O-ethyl)tyrosyl-phenylalanyl-valyl-asparaginyl-(2-amino)butyryl-prolyl-argininamide] ({Acetyl(1-adamantyl)}-[dY](Et)FVN[Abu]PR-NH2) | 7.20 ± 0.04 | 7.43 ± 0.06 |
| CCOc1ccc(C[C@@H](NC(=O)CC23CC4CC(CC(C4)C2)C3)C(=O)N[C@@H](Cc2ccccc2)C(=O)N[C@H](C(=O)N[C@@H](CC(N)=O)C(=O)N[C@@H](CCCN)C(=O)N2CCC[C@H]2C(=O)N[C@@H](CCCNC(=N)N)C(N)=O)C(C)C)cc1 [(1-adamantyl)acetyl-D-(O-ethyl)tyrosyl-phenylalanyl-valyl-asparaginyl-ornithyl-prolyl-argininamide] ({Acetyl(1-adamantyl)}-[dY](Et)FVN[Orn]PR-NH2) | 7.81 ± 0.10 | 7.33 ± 0.06 |
| CCOc1ccc(C[C@@H](NC(=O)CC23CC4CC(CC(C4)C2)C3)C(=O)N[C@@H](Cc2ccccc2)C(=O)N[C@H](C(=O)N[C@@H](CC(N)=O)C(=O)N[C@@H](CC)C(=O)N2CCC[C@H]2C(=O)N[C@@H](CCCNC(=N)N)C(=O)NCCN)C(C)C)cc1 [(1-adamantyl)acetyl-D-(O-ethyl)tyrosyl-phenylalanyl-valyl-asparaginyl-(2-amino)butyryl-prolyl-arginine-N-(2-aminoethyl)amide] ({Acetyl(1-adamantyl)}-[dY](Et)FVN[Abu]PR-Ethylenediamine) | 7.71 ± 0.09 | 7.33 ± 0.09 |
| CCOc1ccc(C[C@@H](NC(=O)CC2(S)CCCCC2)C(=O)N[C@@H](Cc2ccccc2)C(=O)N[C@H](C(=O)N[C@@H](CC(N)=O)C(=O)N[C@@H](CC)C(=O)N2CCC[C@H]2C(=O)N[C@@H](CCCNC(=N)N)C(=O)NCC(N)=O)C(C)C)cc1 [(1-mercaptocyclohexyl)acetyl-D-(O-ethyl)tyrosyl-phenylalanyl-valyl-asparaginyl-(2-amino)butyryl-prolyl-arginyl-glycinamide] ({Cyclohexylacetyl(1-SH)}-[dY](Et)FVN[Abu]PRG-NH2) | 7.42 ± 0.05 | 7.71 ± 0.05 |
| CCOc1ccc(C[C@@H](NC(=O)CC2(S)CCCCC2)C(=O)N[C@@H](Cc2ccccc2)C(=O)N[C@H](C(=O)N[C@@H](CC(N)=O)C(=O)N[C@@H](CS)C(=O)N2CCC[C@H]2C(=O)N[C@@H](CCCNC(=N)N)C(=O)NCC(N)=O)C(C)C)cc1 [(1-mercaptocyclohexyl)acetyl-D-(O-ethyl)tyrosyl-phenylalanyl-valyl-asparaginyl-cysteinyl-prolyl-arginyl-glycinamide] ({Cyclohexylacetyl(1-SH)}-[dY](Et)FVNCPRG-NH2) | 7.05 ± 0.08 | 7.51 ± 0.03 |
| CCOc1ccc(C[C@@H](NC(=O)CC23CC4CC(CC(C4)C2)C3)C(=O)N[C@@H](Cc2ccccc2)C(=O)N[C@H](C(=O)N[C@@H](CC(N)=O)C(=O)N[C@@H](CCCCN)C(=O)N2CCC[C@H]2C(=O)N[C@@H](CCCNC(=N)N)C(N)=O)C(C)C)cc1 [(1-adamantyl)acetyl-D-(O-ethyl)-tyrosyl-phenylalanyl-valyl-asaparaginyl-lysyl-prolyl-argininamide] ({Acetyl(1-adamantyl)}-[dY](Et)FVNKPR-NH2) | 7.81 ± 0.08 | 8.02 ± 0.06 |
| CCOc1ccc(C[C@@H](NC(=O)CC(S)(CC)CC)C(=O)N[C@@H](Cc2ccccc2)C(=O)N[C@H](C(=O)N[C@@H](CC(N)=O)C(=O)N[C@@H](CC)C(=O)N2CCC[C@H]2C(=O)N[C@@H](CCCNC(=N)N)C(=O)NCC(N)=O)C(C)C)cc1 [(3-ethyl-3-mercapto)valeroyl-D-(O-ethyl)tyrosyl-phenylalanyl-valyl-asparaginyl-(2-amino)butyryl-prolyl-arginyl-glycinamide] (X1-[dY](Et)FVN[Abu]PRG-NH2) | 7.09 ± 0.09 | 6.94 ± 0.04 |
| CCOc1ccc(C[C@@H](NC(=O)CC)C(=O)N[C@@H](Cc2ccccc2)C(=O)N[C@H](C(=O)N[C@@H](CC(N)=O)C(=O)N[C@@H](CC)C(=O)N2CCC[C@H]2C(=O)N[C@@H](CCCNC(=N)N)C(=O)N[C@@H](CCCNC(=N)N)C(N)=O)C(C)C)cc1 [propionyl-D-(O-ethyl)tyrosyl-phenylalanyl-valyl-asparaginyl-(2-amino)butyryl-prolyl-arginyl-argininamide] (Propionyl-[dY](Et)FVN[Abu]PRR-NH2) | 7.74 ± 0.07 | 6.71 ± 0.09 |
| CCOc1ccc(C[C@@H](NC(=O)CC23CC4CC(CC(C4)C2)C3)C(=O)N[C@@H](Cc2ccccc2)C(=O)N[C@H](C(=O)N[C@@H](CC(N)=O)C(=O)N[C@@H](CC)C(=O)N2CCC[C@H]2C(=O)N[C@@H](CCCNC(=N)N)C(=O)N[C@@H](C)C(N)=O)C(C)C)cc1 [(1-adamantyl)acetyl-D-(O-ethyl)tyrosyl-phenylalanyl-valyl-asparaginyl-(2-amino)butyryl-prolyl-arginyl-alaninamide] ({Acetyl(1-adamantyl)}-[dY](Et)FVN[Abu]PRA-NH2) | 6.55 ± 0.04 | 7.18 ± 0.04 |
